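Each compound was tested at five concentrations against cells in 96-well plates for 48 hours. GI50 marks 50% less growth. TGI denotes the concentration required for complete inhibition of growth.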
How the values were obtained:
Assay in all cases: inhibition of tumour cell growth, NCI panel, 48 h
[1] = tested on: DU-145 prostate
[2] = tested on: OVCAR-3 ovarian
[3] = tested on: SNB-75 CNS
[4] = tested on: TK-10 renal
[5] = tested on: KM12 colon
[6] = tested on: HL-60(TB) leukemia
[7] = tested on: K-562 leukemia
[8] = tested on: A498 renal
[9] = tested on: RPMI-8226 leukemia
[10] = tested on: NCI-H522 lung
[11] = tested on: NCI-H460 lung
[12] = tested on: HOP-92 NSCLC
[13] = tested on: NCI-H23 lung
[14] = tested on: OVCAR-4 ovarian
[15] = tested on: SW-620 colon
[16] = tested on: OVCAR-5 ovarian
[17] = tested on: SNB-19 CNS
[18] = tested on: A549 NSCLC
[19] = tested on: NCI-H226 lung
[20] = tested on: PC-3 prostate
[21] = tested on: MCF7 breast
[22] = tested on: SF-295 CNS
[23] = tested on: MALME-3M melanoma
[24] = tested on: HCT-116 colon
[25] = tested on: HCC-2998 colon
[26] = tested on: M14 melanoma
[27] = tested on: HT29 colon
[28] = tested on: HCT-15 colon
[29] = tested on: SK-MEL-28 melanoma
[30] = tested on: UACC-257 melanoma
[31] = tested on: RXF 393 renal
[32] = tested on: NCI/ADR-RES ovarian
[33] = tested on: SN12C renal
[34] = tested on: MDA-MB-231 breast
[35] = tested on: UACC-62 melanoma
[36] = tested on: HS 578T breast
[37] = tested on: UO-31 renal
[38] = tested on: OVCAR-8 ovarian
[39] = tested on: SR leukemia
[40] = tested on: EKVX NSCLC
[41] = tested on: MOLT-4 leukemia
[42] = tested on: HOP-62 NSCLC
[43] = tested on: ACHN renal
[44] = tested on: BT-549 breast
[45] = tested on: U251 CNS
[46] = tested on: LOX IMVI melanoma
[47] = tested on: SK-OV-3 ovarian
[48] = tested on: SF-268 CNS
[49] = tested on: COLO 205 colon
[50] = tested on: 786-0 renal
[51] = tested on: SF-539 CNS
[52] = tested on: SK-MEL-5 melanoma
[53] = tested on: SK-MEL-2 melanoma
[54] = tested on: CCRF-CEM leukemia
[55] = tested on: T-47D breast
[56] = tested on: MDA-MB-435
[57] = tested on: IGROV1 ovarian
[58] = tested on: CAKI-1 renal

Question: CO[C@]12C=C/C(=C(/C(=O)OCc3cccnc3)C(=O)CCCCCCCC[C@]3(OC)C=C/C(=C(/C(=O)OCc4cccnc4)C(=O)CCCCCCCC1)O3)O2 was tested. Which GI50 [1] did it give?
Answer: 0.375 µM

Question: And the TGI [1]?
Answer: 1.27 µM

Question: And the GI50 [2]?
Answer: 0.312 µM

Question: What about the TGI [2] of the same compound?
Answer: 0.917 µM

Question: And the GI50 [3]?
Answer: 0.247 µM

Question: And the TGI [3]?
Answer: 1.2 µM

Question: And the GI50 [4]?
Answer: 0.583 µM

Question: What about the TGI [4] of the same compound?
Answer: 1.96 µM

Question: What about the GI50 [5] of the same compound?
Answer: 0.207 µM

Question: What about the TGI [5] of the same compound?
Answer: 0.429 µM

Question: And the GI50 [6]?
Answer: 0.337 µM

Question: And the TGI [6]?
Answer: 1.02 µM

Question: What about the GI50 [7] of the same compound?
Answer: 0.337 µM

Question: What about the TGI [7] of the same compound?
Answer: 1.3 µM

Question: What about the GI50 [8] of the same compound?
Answer: 0.432 µM

Question: What about the TGI [8] of the same compound?
Answer: 1.72 µM

Question: And the GI50 [9]?
Answer: 0.291 µM

Question: What about the TGI [9] of the same compound?
Answer: 0.927 µM

Question: What about the GI50 [10] of the same compound?
Answer: 0.225 µM

Question: And the TGI [10]?
Answer: 0.554 µM

Question: And the GI50 [11]?
Answer: 0.321 µM

Question: And the TGI [11]?
Answer: 1.02 µM

Question: And the GI50 [12]?
Answer: 0.262 µM

Question: And the TGI [12]?
Answer: 0.889 µM

Question: What does the source list for O=C(/C=C/c1ccco1)c1cccc(Nc2nc(Nc3ccccc3)nc(Nc3ccccc3)n2)c1?
Answer: GI50 [13]: 26.1 µM; TGI [13]: > 100 µM; GI50 [14]: 10.6 µM; TGI [14]: > 100 µM; GI50 [15]: 18.2 µM; TGI [15]: > 100 µM; GI50 [16]: > 100 µM; TGI [16]: > 100 µM; GI50 [17]: > 100 µM; TGI [17]: > 100 µM; GI50 [18]: 0.357 µM; TGI [18]: > 38.2 µM; GI50 [19]: 18.3 µM; TGI [19]: > 82 µM; GI50 [20]: 5.13 µM; TGI [20]: > 100 µM; GI50 [21]: 1.92 µM; TGI [21]: > 52.4 µM; GI50 [22]: 2.94 µM; TGI [22]: > 25.3 µM; GI50 [23]: > 66.7 µM; TGI [23]: > 100 µM; GI50 [24]: 2.47 µM; TGI [24]: 35.3 µM; GI50 [25]: 25.7 µM; TGI [25]: > 100 µM; GI50 [26]: 37.7 µM; TGI [26]: > 100 µM; GI50 [27]: 17.2 µM; TGI [27]: > 100 µM; GI50 [1]: 14.5 µM; TGI [1]: > 100 µM; GI50 [28]: 5.12 µM; TGI [28]: > 100 µM; GI50 [29]: 23.7 µM; TGI [29]: > 100 µM; GI50 [30]: > 44.7 µM; TGI [30]: > 83.8 µM; GI50 [2]: 2.83 µM; TGI [2]: 27.1 µM; GI50 [3]: 2.16 µM; TGI [3]: > 69.5 µM; GI50 [31]: 1.36 µM; TGI [31]: 8.15 µM; GI50 [32]: 36.3 µM; TGI [32]: > 100 µM; GI50 [33]: 35 µM; TGI [33]: > 100 µM; GI50 [34]: 5.4 µM; TGI [34]: > 100 µM; GI50 [4]: 55.3 µM; TGI [4]: > 100 µM; GI50 [5]: 6.06 µM; TGI [5]: > 100 µM; GI50 [35]: 48.8 µM; TGI [35]: > 100 µM; GI50 [36]: 12.6 µM; TGI [36]: > 82.7 µM; GI50 [37]: 3.97 µM; TGI [37]: > 69.6 µM; GI50 [38]: 10 µM; TGI [38]: > 83.2 µM; GI50 [39]: 5.01 µM; TGI [39]: > 24.1 µM; GI50 [6]: > 29.6 µM; TGI [6]: > 54.3 µM; GI50 [40]: 9.82 µM; TGI [40]: > 100 µM; GI50 [41]: 4.34 µM; TGI [41]: > 31.8 µM; GI50 [42]: > 55.4 µM; TGI [42]: > 100 µM; GI50 [43]: 30.5 µM; TGI [43]: > 100 µM; GI50 [44]: 19 µM; TGI [44]: > 82.9 µM; TGI [7]: > 56.1 µM; GI50 [45]: 16 µM; TGI [45]: > 100 µM; GI50 [46]: 17.9 µM; TGI [46]: > 100 µM; GI50 [8]: 0.444 µM; TGI [8]: 1.77 µM; GI50 [47]: > 86.6 µM; TGI [47]: > 100 µM; GI50 [9]: 0.279 µM; TGI [9]: 5.47 µM; GI50 [48]: 28.7 µM; TGI [48]: > 100 µM; GI50 [10]: 44.6 µM; TGI [10]: > 100 µM; GI50 [49]: 2.29 µM; TGI [49]: 14.3 µM; GI50 [50]: 8.49 µM; TGI [50]: > 100 µM; GI50 [51]: 44.5 µM; TGI [51]: > 100 µM; GI50 [52]: 22 µM; TGI [52]: > 100 µM; GI50 [53]: 20.5 µM; TGI [53]: > 100 µM; GI50 [11]: 1.4 µM; TGI [11]: > 27.1 µM; GI50 [54]: 3.07 µM; TGI [54]: > 24.1 µM; GI50 [55]: 3.61 µM; TGI [55]: > 100 µM; GI50 [56]: 37.7 µM; TGI [56]: > 100 µM; GI50 [57]: 2.87 µM; TGI [57]: > 100 µM; GI50 [58]: 23.2 µM; TGI [58]: > 100 µM
